Source: patent US20030021856A1, “New use of ammonium compounds and/or urea” (priority 1996, published 2003)

Tests used:
[1] = supplied intravenously and perorally; known by intensive care physicians; cited from earlier work
[2] = Peroral self-administration of ammonium chloride by the inventor (respiratory gas exchange); assay type: in vivo, human; details: 80 mmoles ammonium chloride perorally
From the text: Please replace the paragraph beginning at line 1 on page 5 with the following: portal area, especially at acidosis, can be utilized for synthesis of glutamine in the liver. […] When the patient treated is breathing by themself, the supply of ammonium will bring about a so-called compensatory hyperventilation. […] Furthermore, there is a report on the concentration of urea in the vitreous body of dead SIDS patients which is compared to autopsy material from children deceased from other causes at the same age [Blumenfeld T A, et al, Am J Clin Pathol, 71, 219-223 (1979)]. It appeared that children deceased from SIDS have lower urea values than children deceased from other causes. […] The low concentration of urea found is thus not inconsistent with the hypothesis put forward here.

Compound: Cl.N [ammonium chloride]
- effect on base excess values [1]: lowers base excess values
- duration of the increased carbon dioxide elimination [2]: ~1 h
- effect on ventilation [2]: slight hyperventilation
- increase in elimination of carbon dioxide [2]: 30 mL/min
- resorption from the gastrointestinal tract [2]: resorbed very quickly
- total carbon dioxide corresponding to the increased elimination ([2]; 30 ml/min for nearly 1h): about 80 mmoles
- RQ (Respiratory Quotient = carbon dioxide emission / oxygen gas uptake) after administration ([2]; value at rest 0.82): 0.87
